Laboratory results reported in patent publication US11667621B2, “Antiestrogen compounds” (STEVENS INSTITUTE OF TECHNOLOGY, priority 2018, dated 2023).

Biological target: T1, CRISPR KI Y537S (Homo sapiens, UniProt P03372, Y537S)
T1 construct: endogenous in cells; host or cells: CRISPR knock-in clones (cl. 4, cl. 24)
T1 sequence (P03372 1-595 Y537S): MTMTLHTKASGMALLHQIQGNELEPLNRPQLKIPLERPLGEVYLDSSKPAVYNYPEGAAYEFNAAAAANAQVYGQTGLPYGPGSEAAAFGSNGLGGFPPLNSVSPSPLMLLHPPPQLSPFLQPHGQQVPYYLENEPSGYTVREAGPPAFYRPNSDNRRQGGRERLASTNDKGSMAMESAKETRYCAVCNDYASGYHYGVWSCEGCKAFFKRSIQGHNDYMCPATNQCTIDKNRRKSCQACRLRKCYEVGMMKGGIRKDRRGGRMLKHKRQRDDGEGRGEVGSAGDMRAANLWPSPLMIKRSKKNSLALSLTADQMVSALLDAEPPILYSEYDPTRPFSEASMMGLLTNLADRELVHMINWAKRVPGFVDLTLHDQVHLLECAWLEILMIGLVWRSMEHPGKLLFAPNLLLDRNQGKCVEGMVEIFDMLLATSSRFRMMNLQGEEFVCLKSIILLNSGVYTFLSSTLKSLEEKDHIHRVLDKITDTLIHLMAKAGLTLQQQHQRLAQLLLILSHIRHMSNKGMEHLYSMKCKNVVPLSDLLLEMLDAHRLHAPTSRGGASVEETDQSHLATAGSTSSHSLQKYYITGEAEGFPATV
Experiment: Luciferase assay, CRISPR KI Y537S clones
Format: cell-based
Design: concentration or dose not given beside the values
Conditions: for CRISPR KI (% Inhibition) Y537S cl. 4: clone 4; for CRISPR KI (% Inhibition) Y537S cl. 24: clone 24
Procedure: Luciferase assays were performed to determine the efficacy of the example compounds at inhibiting ER or its mutants' ability to activate transcription of genes.
Cells were plated at a density of 0.15×10^6 per well of 24 well plates one day prior to transfection. Cells were transfected with 125 ng (per well) of HA-ERα wild type or mutants, 315 ng (per well) of 3×-ERE-TATA-Luciferase reporter and 50 ng (per well) of pRL-TK Renilla Luciferase plasmid, using Xtremegene (Roche). The cells were treated with the various compounds or Fulvestrant at the indicated doses a day after transfection for 24 hours and luciferase activities were determined using the Dual-Luciferase® Reporter Assay System (Promega) according to manufacturer's instructions. Luciferase bioluminescence measurements were performed with the Veritas™ Microplate Luminometer (Promega). All experiments were conducted in triplicate and the Firefly luciferase activity was normalized with the Renilla luciferase activity of each sample.

CRISPR KI (% Inhibition) Y537S cl. 4 | CRISPR KI (% Inhibition) Y537S cl. 24 | Compound
−187% | −108% | O=C(NCCCCOc1ccc(C(=C2C3CC4CC(C3)CC2C4)c2ccc(O)cc2)cc1)C12CC3CC(CC(C3)C1)C2 [Example 6, N-(4-(4-(Adamantan-2-ylidene(4-hydroxyphenyl)methyl)phenoxy)-butyl)adamantane-1-carboxamide]
−70% | −64% | CC12CC3CC(C)(C1)CC(C(=O)NCCCCOc1ccc(C(=C4C5CC6CC(C5)CC4C6)c4ccc(O)cc4)cc1)(C3)C2 [Example 7, N-(4-(4-(Adamantan-2-ylidene(4-hydroxyphenyl)methyl)phenoxy)butyl)-3,5-dimethyladamantane-1-carboxamide]
−387% | −249% | O=C(NCCCCOc1ccc(C(=C2C3CC4CC(C3)CC2C4)c2ccc(O)cc2)cc1)C12CC3CC(CC1C3)C2 [Example 8, N-(4-(4-((Adamantan-2-ylidene)(4-hydroxyphenyl)methyl)phenoxy)butyl)-hexahydro-2,5-methanopentalene-3a(1H)-carboxamide]
 | −496% | O=C(NCCCCOc1ccc(C(=C2C3CC4CC(C3)CC2C4)c2ccc(O)cc2)cc1)C1CCC1 [Example 10, N-(4-(4-(Adamantan-2-ylidene(4-hydroxyphenyl)methyl)phenoxy)butyl)-cyclobutanecarboxamide]

More lines, now with the values behind:

Compound | CRISPR KI (% Inhibition) Y537S cl. 4 | CRISPR KI (% Inhibition) Y537S cl. 24
CC(C)(C)OC(=O)N[C@@H](Cc1c[nH]c2ccccc12)C(=O)NCCCCOc1ccc(C(=C2C3CC4CC(C3)CC2C4)c2ccc(O)cc2)cc1 [Example 1, (S)-tert-Butyl (1-((4-(4-(adamantan-2-ylidene(4-hydroxyphenyl)methyl)-phenoxy)butyl)amino)-3-(1H-indol-3-yl)-1-oxopropan-2-yl)carbamate] | −74% | −34%
O=C(NCCCCOc1ccc(C(=C2C3CC4CC(C3)CC2C4)c2ccc(O)cc2)cc1)[C@H]1C[C@@H]2C=C[C@H]1C2 [Example 9, (1R, 2S, 4R)—N-(4-(4-(Adamantan-2-ylidene(4-hydroxyphenyl)methyl)phenoxy)-butyl)bicyclo[2.2.1]hept-5-ene-2-carboxamide] | −369% | −384%
O=C(NCCCCOc1ccc(C(=C2C3CC4CC(C3)CC2C4)c2ccc(O)cc2)cc1)C1CCCCC1 [Example 11, N-(4-(4-(Adamantan-2-ylidene(4-hydroxyphenyl)methyl)phenoxy)butyl)-cyclohexanecarboxamide] | −62% | −10%
O=C(NCCCCOc1ccc(C(=C2C3CC4CC(C3)CC2C4)c2ccc(O)cc2)cc1)C1CCCCCC1 [Example 12, N-(4-(4-(Adamantan-2-ylidene(4-hydroxyphenyl)methyl)phenoxy)butyl)-cycloheptanecarboxamide] | −232% | −199%
O=C(NCCCCOc1ccc(C(=C2C3CC4CC(C3)CC2C4)c2ccc(O)cc2)cc1)C1CCC(F)(F)CC1 [Example 13, N-(4-(4-(Adamantan-2-ylidene(4-hydroxyphenyl)methyl)phenoxy)butyl)-4,4-difluorocyclohexanecarboxamide] | −334% | −327%
O=C(NCCCCOc1ccc(C(=C2C3CC4CC(C3)CC2C4)c2ccc(O)cc2)cc1)[C@H]1CC[C@H](C(F)(F)F)CC1 [Example 14, (trans)-N-(4-(4-(Adamantan-2-ylidene(4-hydroxyphenyl)methyl)phenoxy)-butyl)-4-(trifluoromethyl)cyclohexanecarboxamide] | −342% | −421%
